# Reference: patent US12559480B2, “Methods of treatment using phenyl indole allosteric inhibitors of P97 ATPase” (University of Pittsburgh—Of the Commonwealth System of …, priority 2015, dated 2026)
# Molecular target: p97 ATPase WT (Homo sapiens (Human), UniProt P55072)
# Test: p97 ADP-Glo assay
# Format: biochemical
# Settings: Table 3
# Excerpt: ADP-Glo™ (Promega Corp.) is a bioluminescent, homogeneous assay that measures ADP formed from a biochemical reactions. Because of its high sensitivity, the assay is suitable for monitoring enzyme activities at very early substrate conversions requiring very low amount of enzymes.
# The ADP-Glo assay can be conducted as described in Chou, T.-F.; Bulfer, S. L.; Weihl, C.
# Sequence of p97 ATPase WT (P55072 whole entry): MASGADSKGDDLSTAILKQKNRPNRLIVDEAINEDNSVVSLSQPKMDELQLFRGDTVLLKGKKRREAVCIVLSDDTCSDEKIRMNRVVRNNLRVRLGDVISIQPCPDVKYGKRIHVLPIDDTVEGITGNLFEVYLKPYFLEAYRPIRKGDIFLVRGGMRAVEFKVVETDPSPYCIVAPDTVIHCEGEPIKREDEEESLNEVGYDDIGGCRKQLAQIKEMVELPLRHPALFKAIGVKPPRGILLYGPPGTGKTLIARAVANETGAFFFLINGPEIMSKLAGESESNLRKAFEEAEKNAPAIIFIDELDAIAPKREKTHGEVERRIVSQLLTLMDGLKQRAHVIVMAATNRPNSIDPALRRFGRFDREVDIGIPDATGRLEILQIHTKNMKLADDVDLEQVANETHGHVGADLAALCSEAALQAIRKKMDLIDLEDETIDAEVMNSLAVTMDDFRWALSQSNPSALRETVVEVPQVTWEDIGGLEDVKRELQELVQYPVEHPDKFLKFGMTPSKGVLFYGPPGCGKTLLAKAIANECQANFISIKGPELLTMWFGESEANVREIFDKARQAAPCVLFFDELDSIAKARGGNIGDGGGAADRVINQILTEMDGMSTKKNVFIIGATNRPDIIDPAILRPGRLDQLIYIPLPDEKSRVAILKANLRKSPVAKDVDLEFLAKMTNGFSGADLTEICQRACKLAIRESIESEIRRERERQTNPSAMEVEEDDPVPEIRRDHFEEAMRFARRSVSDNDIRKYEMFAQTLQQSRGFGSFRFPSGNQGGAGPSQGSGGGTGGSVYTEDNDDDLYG
compound,measurement,value
CC(C)N1CCC(NC2CCN(c3cccc(-c4cc5cc(C#N)ccc5[nH]4)c3)CC2)CC1,IC50,6.2 µM
